# Source: patent publication US20250082720A1, “NEW PEPTIDE AND USES THEREOF” (Neo Cremar Co., Ltd., priority 2021, published 2025)
# Columns and labels:
# C2C12 cells [1] = assay: Myodifferentiation: root canal formation and fusion index (Giemsa staining); type: cell-based, mouse; details: for root canal formation compared to untreated cells: C2C12, differentiation medium; for increase in fusion index compared to untreated cells: C2C12, differentiation medium with peptide
# Protocol: When C2C12 cells were 70% grown, media were replaced with myodifferentiation medium added with MSTN protein (1 ng), Ac-MIF2-NH2 (1000 nM), and Ac-MIF2-NH2 (1000 nM)+MSTN protein (1 ng) from proliferation medium, followed by culture for 3 days.
# When the cells grew more than 70% for differentiation of myoblasts into myocytes, they were cultured for 3 days by replacing with a differentiation medium (DMEM+2% FBS+1% P/S). The medium was replaced once daily, and the cells were cultured at 37° C.
# The cell medium was removed, and the cells were washed with PBS. After washing, a methanol: PBS reagent in a 1:1 volume ratio was treated, followed by fixation for 2 minutes. Additionally, after a methanol: PBS reagent in a 2:1 volume ratio was added, fixation was followed for additional 2 minutes. After 2 minutes, 0.04% Giemsa reagent was added, and then the cells were left for 30 minutes, washed with PBS after 30 minutes, and observed under a microscope, with 3 photographs taken for each cell (300×). In the photographs taken, the number of fused nuclei in the root canal cells was counted, the number of nuclei of total cells was counted, and the number of fused nuclei was divided by the number of nuclei of the total cells to obtain the % value.
# C2C12 cells [2] = assay: C2C12 myoblast proliferation (MTT method); type: cell-based, mouse; details: for increase in cell proliferation compared to cells without peptide treatment: C2C12, peptide 1000 nM, 1 day, MTT, FIG. 4
# Protocol: C2C12 cells, a mouse myoblast line, were cultured in Dulbecco's Modified Eagle's Medium (DMEM)+10% fetal bovine serum (FBS)+1% penicillin/streptomycin (P/S). To validate the effect of MIF peptide, C2C12 cells (2×10^3 cells/ml) were placed in a 12 well cell culture dish and attached for 24 hours, and MIF2 or Ac-MIF2-NH2 peptide (1000 nM) was treated for 1 day to observe cell proliferation by MTT method. The medium was replaced every 2 days, and the cells were cultured at 37° C.
# (§1) To validate cell proliferation, the culture medium of the cells was removed, the cells were washed with DMEM, 500 μl of MTT reagent (0.5 mg/ml) dissolved in phosphate buffered saline (PBS) was added to each well, and the cells were left at 37° C. for 1 hour. The reaction solution was removed, and 1000 μl of DMSO was added to each well. Purple formazan crystals were completely dissolved in DMSO, and the absorbance was measured at 540 nm.
# C2C12 cells [3] = assay: Scratch experiment, degree of cell recovery; type: cell-based, mouse; details: C2C12 100% grown, 1000 nM peptide, 1 day
# Protocol: When the C2C12 cells were 100% grown, cells were scratches on the surface, treated with 1000 nM MIF2 or Ac-MIF2-NH2 peptides, and cultured for 1 day, followed by observation for a degree of cell recovery.
# C2C12 cells [4] = assay: Expression of myodifferentiation-related factors (real-time PCR, Western blot, immunocytochemistry); type: cell-based, mouse
# Protocol: (§2) After adding 1 ml of TRIzol™ reagent, the cells were crushed using a sonicator. After centrifugation of the crushed sample (12,000 rpm, 10 min, 4° C.), the supernatant was transferred to a new tube, added with 200 μl of chloroform, and left at room temperature for 10 minutes. After 10 minutes, centrifugation (12,000 rpm, 10 min, 4° C.) was performed, yielded a transparent supernatant. Next, 500 μl of isopropanol was added, the mixture was left for 10 minutes, and centrifugation was performed to obtain RNA pellets. After washing by adding 70% ethanol (distilled water treated with ethanol+diethylpyrocarbonate (hereinafter referred to as DEPC)) to the RNA pellets, complete removal and drying were followed. The dried transparent RNA was added with DEPC-treated distilled water and then stored at −80° C. Total RNA volume was measured by nanodrop, and the 18s and 28s bands were detected in 1.2% agarose gel. cDNA was synthesized with 2 μg of total RNA, random hexamer primers, and reverse transcriptase (25° C.: 10 min, 37° C.: 120 min, 85° C.: 5 min).
# Real-time PCR (RT-PCR) was performed for detecting gene expression. For observation of real-time gene expression, gene expression was analyzed using the Power SYBR Green PCR Master Mix, which includes fluorescent materials of SYBR green (7500 Real-time PCR system). The PCR primer was designed with Primer 3 software (http://frodo.wi.mit.edu) according to the nucleotide sequence secured from NCBI GenBank. PCR was performed 40 times at 95° C. for 10 minutes, again at 95° C. for 33 seconds, at gene primer temperature (tm) for 33 seconds, and at 72° C. for 33 seconds. Gene expression values were analyzed through the analysis of c(t) values obtained through real-time PCR analysis (fold change 2-ΔΔCt formula). Setting the gene expression value of the untreated cells to 1, the gene expression value of the treated cells was calculated. In the analysis of gene c(t) values, normalization was conducted with the glyceraldehyde-3-phosphate dehydrogenase (GAPDH).
# The medium of cultured C2C12 cells was removed and washed once with PBS. The washed cells were treated with 4% formaldehyde (Sigma), fixed for 15 minutes, then washed using PBS, added with 0.2% trypton X-100 (Sigma), and left for 5 minutes. After washing again using PBS, adding 1% normal goat serum, and leaving for 30 minutes, the primary antibody (MYOD, myogenin (MYOG): myosin light chain (MYL2); 1:50) was added to carry out a reaction at 4° C. for 14 hours. The antibodies were removed, washing was performed 3 times with PBS for 10 minutes, and then the cells were left with secondary antibody (Alexa Fluor 488 goat anti-Mouse & rabbit SFX kit t) for 1 hour. After 1 hour, the antibodies were removed, washing was performed with PBS for 10 minutes, the nuclei were stained with 4′,6-diamidino-2-phenylindol (DAPI), and the expression of the proteins was observed using fluorescence microscopy.
# (1) The medium of cultured C2C12 cells was removed, followed by washing with PBS. After adding LIPA buffer and protease inhibitor to the washed cells, the proteins included in the supernatant were collected after centrifugation for 10 minutes at 12000 rpm. 40 μg of the extracted proteins were subjected to electrophoresis in 8 to 10% acrylamide gel and then transferred to a polyvinylidene fluoride (PVDF) membrane (Milipore). These were blocked with 3% skim milk or bovine serum albumin (BSA) at room temperature for 1 hour. Afterwards, primary antibody diluted in 1% skim milk or BSA (Pax7; 1:500, MYOD; 1:500, MYOG; 1:400, MYL2; 1:1000, MYH; 1:500, MSTN; 1:1000, β-actin; 1:1000, MuRF1; 1:400, and Atrogin; 1:1:400) was added and reacted at 4° C. for over 16 hours. After 16 hours, cells were washed three times with TBST (Tris-buffered saline with Tween 20) and reacted with secondary antibody with horseradish peroxidase (HRP) conjugated at room temperature for 1 hour. […]
# 3T3L1 cells [5] = assay: 3T3L1 cell proliferation (MTT method); type: cell-based, mouse; details: 3T3L1, peptide 1000 nM, 2 days, FIG. 13A
# Protocol: 3T3L1 cells, mouse fibroblasts, were cultured in Dulbecco's Modified Eagle's Medium (DMEM)+10% fetal bovine serum (FBS)+1% penicillin/streptomycin (P/S). To validate the effect of MIF peptide, 3T3L1 cells (2×10^3 cells/ml) were placed in a 12-well cell culture dish, attached for 24 hours, and treated with MIF peptide (1000 nM) for 2 days, followed by observation of cell proliferation by MTT method. The medium was replaced once every 2 days, and the cells were cultured at 37° C.
# as §1
# 3T3L1 cells [6] = assay: Expression of FMOD, MSTN and lipogenesis-related factors in 3T3L1 cells (real-time PCR, Western blot); type: cell-based, mouse; details: 3T3L1, compared to untreated cells, FIG. 13C
# Protocol: as §2, with “After washing by adding 70% ethanol (distilled water treated with ethanol+diethylpyrocarbonate (hereinafter referred to as DEPC)) to the RNA pellets, complete removal and drying were followed. The dried transparent RNA was added with DEPC-treated distilled water and then stored at −80° C.” left out
# Real-time PCR (RT-PCR) was performed for detecting gene expression. For observation of real-time gene expression, gene expression was analyzed using the Power SYBR Green PCR Master Mix, which includes fluorescent materials of SYBR green (7500 Real-time PCR system). […] Gene expression values were analyzed through the analysis of c(t) values obtained through real-time PCR analysis (fold change 2-ΔΔCt formula). Setting the gene expression value of the untreated cells to 1, the gene expression value of the treated cells was calculated. […]
# 3T3L1 cells [7] = assay: Adipodifferentiation of 3T3L1 cells (Oil Red O staining); type: cell-based, mouse; details: 3T3L1, adipocyte differentiation medium, 4 days, FIG. 13B
# Protocol: For differentiation of 3T3L1 cells into adipocytes, when the cells grew about 100% or more, they were replaced with differentiation medium (DMEM+10% FBS+1% P/S+10 μg/ml insulin+1 μM dexametazone+0.5 μM IBMX (3-isobutyl-1-methylxanthine)) and cultured for 2 days. After 2 days, MIF peptide was treated in a medium including 10 μg/ml insulin to induce cell differentiation.
# 3T3L1 cells were treated with peptides and differentiated for 4 days, then the medium was removed, and the cells were washed with normal saline, treated with 10% formaldehyde, and left for 10 minutes. After 10 minutes, Oil-red O staining agents (6 ([…] Oil-red O reagent+1 ml 100% isopropanol): 4 (distilled water)) were treated and left for 1 hour. After 1 hour, cells were washed with normal saline and then observed under a microscope. To measure the Oil-red O stained in the intracellularly differentiated cells, 100% isopropanol was added and collected, followed by measurement at 510 nm.
# [8] = system: gastrocnemius muscle of C57BL/6 mice; assay: Myoregeneration after Ac-MIF2-NH2 injection and cardiotoxin (CTX) muscle injury; type: in vivo, mouse
# Description: The male C57BL/6 mice were purchased from Dae Han Bio Link Co., Ltd., four of which per cage were kept in a temperature-controlled room with a 12-hour light cycle. The animals were fed with a standard rodent diet containing 4.0% (wt/wt) total fat (Rodent NIH-31 Open Formula Auto; Zeigler Bros., Inc., Gardners, PA, USA) and water. All experiments involving animals complied with the guidelines (YUMC-AEC2015-006) issued by the Animal Control Committee of Youngnam University's Animal Research Institute. The MSTN knock-out mouse was provided by a laboratory at Seoul National University. Normal, MSTN+/−(heterozygous), and MSTN−/−(homozygous) adipose tissues were fixed by collecting from 6-week-old mice and stored at −80° C. until required for analysis.
# Muscle tissues containing paraffin was subjected to deparaffinization with xylene and ethanol and hydration, respectively, and the tissue was soaked in 0.3% hydrogen peroxide water (H2O2)/methanol for 15 minutes to stop endogenous peroxidase activity. Then, tissues were stained with hematoxylin/eosin for morphological observation or reacted with 1% normal goat serum at room temperature for 1 hour to block a reaction with non-specific antibodies, followed by a reaction with the primary antibody (1:50) at 4° C. for over 16 hours. After 16 hours, washing was performed 3 times with PBS, followed by a reaction with secondary antibody (1:100) with HRP conjugated at room temperature for 1 hour. Horse radish peroxidase-conjugated streptavidin was added to detect the expression of the protein, followed by observation under a microscope.
# In order to observe the myoregeneration effect following MIF peptide injection, mice were injected with Ac-MIF2-NH2 peptide and injected/uninjected with cardiotoxin (hereinafter referred to as CTX) into the muscle, followed by observation of the morphology and regeneration of the muscle. A day after C57BL/6 mice were injected with Ac-MIF2-NH2 peptide (1.125 mM), […] cardiotoxin was injected into the gastrocnemius. Muscle tissues were sampled 7 days after CTX injection.
# Paraffin-embedded muscle sections were deparaffinized using xylene, rehydrated using a concentration gradient of ethanol, stained with hematoxylin and eosin, observed under an optical microscope, magnified at 400× scale, and photographed, followed by measurement of the diameter of muscle fibers using Image J software.
# [9] = C2C12 differentiation, versus control
# [10] = C2C12 myodifferentiation, FIG. 8
# [11] = injected muscle, 7 days after CTX, FIG. 10B
# [12] = C2C12 myodifferentiation, FIG. 6
substance,measurement,setting,value
MSTN protein: myostatin protein that inhibits the proliferation and differentiation of myoblasts [reference compound],differentiation of cells compared to untreated cells,"C2C12 cells [1]; C2C12, MSTN protein in differentiation medium, FIG. 3",reduced
same,root canal formation compared to untreated cells,C2C12 cells [1]; 3 days,reduced
same,proliferation of cells compared to untreated cells,"C2C12 cells [2]; C2C12, MSTN protein in proliferation medium, FIG. 3",reduced
"Ac-VDFEAGDWFW-NH2 [Ac-MIF2-NH2, MIF2 peptide with acetylated N-terminus and amidated C-terminus]",increase in fusion index compared to untreated cells,C2C12 cells [1]; 3 days,14%
same,root canal formation compared to untreated cells,C2C12 cells [1]; 3 days,increased
same,fusion index compared to untreated cells,"C2C12 cells [1]; C2C12, myodifferentiation medium, 3 days, FIG. 9",increased
same,increase in scratch recovery degree compared to untreated cells,C2C12 cells [3],26%
same,MSTN protein expression,C2C12 cells [4]; [9],reduced
same,"mRNA and protein expression of MYOD, MYOG, MYL2, and MYH",C2C12 cells [4]; [9],increased
same,ACVRIIB protein expression,C2C12 cells [4]; [10],reduced
same,gene expression of Atrogin1 and MuRF1,C2C12 cells [4]; [10],reduced
same,increase in cell proliferation compared to cells without peptide treatment,C2C12 cells [2],33%
same,decrease in proliferation compared to cells without peptide treatment,3T3L1 cells [5],10%
same,"expression of FMOD; MSTN; and lipogenesis-related mRNAs and proteins (CD36, CD163, and PPARγ)",3T3L1 cells [6],decreased
same,decrease in fat accumulation (Oil-red O intensity) compared to cells without peptide treatment,3T3L1 cells [7],9%
same,muscle weight compared to muscle without injection,[8]; 7 days after CTX injection,no significant difference
same,diameter of the muscle fibers compared to muscles without injection,"[8]; 7 days after CTX, FIG. 10C",increased
same,muscle weight,"[8]; CTX + Ac-MIF2-NH2, 7 days after CTX injection",0.147 ± 0.163 g
same,"mRNA expression of Pax7, MYOD, MYOG, MYL2, and MYH in muscle","[8]; injected muscle, 7 days after CTX, FIG. 10A",significantly increased
same,MSTN protein expression in muscle,[8]; [11],decreased
same,"protein expression of Pax7, MYOD, MYOG, MYL2, and MYH in muscle",[8]; [11],increased
VDFEAGDWFW [MIF2],increase in fusion index compared to untreated cells,C2C12 cells [1]; 3 days,12%
same,increase in scratch recovery degree compared to untreated cells,C2C12 cells [3],22%
same,expression of MSTN mRNA and proteins,C2C12 cells [4]; [9],did not show any significant differences
same,"mRNA and protein expression of MYOD, MYOG, MYL2, and MYH",C2C12 cells [4]; [9],increased
same,expression of ACVRIIB mRNA,C2C12 cells [4]; [12],decreased
same,expression of MuRF1 and ACVRIIB proteins,C2C12 cells [4]; [12],decreased
same,increase in cell proliferation compared to cells without peptide treatment,C2C12 cells [2],6%
